From US12653191B2, “Active compound combinations” (Bayer Aktiengesellschaft, priority 2020, dated 2026) come the findings set out here.

What all share (assay type): cell-based
Assay [1] concerns Alternaria alternata. The experiment in a line: in vitro-Test with fungal microorganisms, Method B (tables A13-A22). An outline of the steps: (§1)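 Efficacy, relative to untreated control (0% = growth as in control, 100% = no growth), from photometric growth measurement at 600 nm after 3 to 7 days at 20° C., 85% relative humidity. Compound applied in methanol+emulsifier, solvent evaporated, then spore/mycelium-amended liquid medium added.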

Assay [2] concerns Botrytis cinerea. Briefly: in vitro-Test with fungal microorganisms, Method B (tables B15-B18). Summed up:
as §1

Assay [3] has as its system Cercospora beticola. The experiment in a line: in vitro-Test with fungal microorganisms, Method B (tables C11-C20). To be noted: single compound. An outline of the steps: as §1
The subject of assay [4] is Cordana musae. The experiment in a line: in vitro-Test with fungal microorganisms, Method B (tables E9-E16). To be noted: single active. An outline of the steps:
as §1

Assay [5] deals with Diaporthe citri. The experiment in a line: in vitro-Test with fungal microorganisms, Method B (tables F12-F15). The protocol:
Example: In Vitro-Test with Fungal Microorganisms
Wells of 96-well microtiter plates are filled with 30 μl of a preparation of test compound or compound combination in methanol+emulsifier alkylaryl-polyglycol-ether. Thereafter, the solvent is evaporated in a hood. At the next step, 200 μl of liquid growth medium is given, that has been amended with an appropriate concentration of spores or mycelium suspension of the test fungus.
With the aid of a photometer, the extinction in all wells is measured at the wavelength of 600 nm.
The microtiter plates are incubated for 3 to 7 days at 20° C. and 85% relative humidity. After the incubation inhibition of growth is determined photometrically. Efficacy is calculated in relation to the untreated control, 0% efficacy means fungal growth as high as in untreated control while 100% efficacy means no fungal growth is measured.
The data in tables A1 to A12, B1 to B14, C1 to C10, D1 to D8, E1 to E8, F1 to F11, G1 to G4, H1 to H4 and I1 to I5 were collected according to Method A. The data in tables A13 to A22, B15 to B18, C11 to C20, E9 to E16, F12 to F15, G5 to G15, H5 to H8, I6 to I11 and J1 to J11 were collected according to Method B.

The test system of assay [6] is Fusarium culmorum. Briefly: in vitro-Test with fungal microorganisms, Method B (tables G5-G15). An outline of the steps: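 Steps: solvent evaporation leaves the compound coating the wells; fungus-inoculated liquid growth medium goes on top; absorbance at 600 nm is measured; incubation runs 3 to 7 days at 20° C. with 85% relative humidity. Inhibition is then read photometrically and expressed as efficacy against untreated control.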

For assay [7], the system named is Parastagonospora nodorum. Briefly: in vitro-Test with fungal microorganisms, Method B (tables H5-H8). An outline of the steps: as §1
The subject of assay [8] is Ustilago segetum var. avenae. Briefly: in vitro-Test with fungal microorganisms, Method B (tables I6-I11). The conditions noted are these: 0.2 ppm. Summed up: as §1
Assay [9] has as its system Colletotrichum coccodes. The experiment in a line: in vitro-Test with fungal microorganisms, Method B (tables J1-J11). Summed up:
as §1

Where [10] appears, read: single active compound, 0.2 ppm.

Molecules are shown by their SMILES. Values joined by “and” are separate entries in the source; they are usually repeats but may differ in a detail not shown here. Equal entries are not always repeated.

As to `Cc1cccc(-n2nnn(C)c2=O)c1COc1ccn(-c2ccc(Cl)cc2)n1` [(3.030) metyltetraprole, metyltetraprole], the Efficacy was 0% in [1] (0.008 ppm); 87% in assay [1] (1 ppm); 0% in [4] (0.008 ppm); 0% in assay [4] (0.04 ppm); 19% in [4] (0.2 ppm); 70% in assay [4] (1 ppm). For the same compound, the Efficacy in assay [5] (Table F14, 0.2 ppm alone) was 86%; in assay [6] (0.2 ppm alone), 13%; in assay [6] (single active compound, 0.008 ppm), 7% and 0%; in [6] (single active compound, 0.04 ppm), 8% and 0%; in assay [6] (setting [10]), 6% and 5%; in assay [6] (single active compound, 1 ppm), 8% and 2%. For the same compound, the Efficacy amounted to 38% in assay [7] (0.04 ppm) and 84% in [7] (1 ppm). The Efficacy % was 7% in assay [2] (0.008 ppm alone); 11% in assay [2] (0.04 ppm alone); 7% in [2] (0.2 ppm alone); 33% in assay [2] (1 ppm alone); 100% in assay [3] (0.04 ppm); 100% in [3] (0.2 ppm). In addition, the Efficacy % was 0% in assay [8], 0% in [9] (single active compound at 0.04 ppm) and 1% in assay [9] (single active compound at 0.2 ppm).
For the compound `Cc1nn(C)c(F)c1C(=O)Nc1ccccc1C(C)CC(C)C` (stereo not shown) [(2.017) penflufen, penflufen], the Efficacy came to 22% in [1] (0.2 ppm); 72% in [1] (5 ppm); 0% in assay [4] (0.04 ppm); 0% in assay [4] (0.2 ppm); 0% in assay [4] (1 ppm); 0% in [5] (Table F15, 0.04 ppm alone). Further, the Efficacy in assay [5] (Table F15, 0.2 ppm alone) is 2%; in assay [5] (Table F15, 1 ppm alone), 0%; in [5] (Table F15, 5 ppm alone), 3%; in [6] (0.04 ppm alone), 4%; in assay [6] (setting [10]), 10% and 2%; in assay [6] (single active compound, 1 ppm) it was 11%. In addition, the Efficacy in assay [6] (single active compound, 5 ppm) is 11% and 8%; in assay [7] (0.04 ppm), 0%; in [7] (0.2 ppm), 5%. In addition, the Efficacy % is reported as 0% in assay [2] (0.04 ppm alone); 70% in [2] (5 ppm alone); 0% in [3] (1 ppm); 0% in [9] (single active compound at 1 ppm); 27% in assay [9] (single active compound at 5 ppm).
